Reference: ChEMBL document CHEMBL1141017, “Triterpene based compounds with potent anti-maturation activity against HIV-1” (Bioorg Med Chem Lett, 2008)
Active and inactive are the calls of the source. The rule behind the calls is not given here.

Tests used:
[1] = tested on: Human immunodeficiency virus 1; test: Antiviral activity against HIV1 3B replication in human PBMC assessed as reverse transcriptase activity after 7 days; assay type: functional, organism-based; details: for IC50: Human immunodeficiency virus 1, 3B, 168 h
PBMC = test: (§1) Cytotoxicity against human PBMC by cell viability assay; assay type: cell-based
[2] = Cytotoxicity against human MT4 cells after 4 days by cell viability assay; assay type: cell-based; details: read-out: TC50
[3] = tested on: Human immunodeficiency virus 1; test: Antiviral activity against HIV1 NL4-3 infected in human MT4 cells assessed as cytoprotection against virus-induced cytopathic effect after 4 days by cell viability assay; assay type: functional, organism-based; details: Human immunodeficiency virus 1, NL4-3, MT4, 96 h
[4] = Therapeutic index, ratio of TC50 for human MT4 cells to EC50 for HIV1 NL43; assay type: cell-based
[5] = Therapeutic index, ratio of TC50 for human MT4 cells to IC50 for HIV1 3B; assay type: cell-based
[6] = Metabolic stability in human liver microsomes assessed as compound remaining after 40 mins; assay type: ADME, Microsome; details: read-out: Stability
[7] = Metabolic stability in Sprague-Dawley rat liver microsomes assessed as compound remaining after 40 mins; assay type: ADME, Microsome; details: read-out: Stability
[8] = Tmax in Sprague-Dawley rat at 7.5 mg/kg, po; assay type: ADME, organism-based; set-up: dose 7.5 mg/kg, route oral; details: in vivo
[9] = as §1; assay type: cell-based; details: read-out: TC50 (the source's name)
[10] = Tmax in Sprague-Dawley rat at 10 mg/kg, po; assay type: ADME, organism-based; set-up: dose 10 mg/kg, route oral; details: in vivo
[11] = Half life in Sprague-Dawley rat at 7.5 mg/kg, po; assay type: ADME, organism-based; set-up: dose 7.5 mg/kg, route oral; details: in vivo
[12] = Half life in Sprague-Dawley rat at 10 mg/kg, po; assay type: ADME, organism-based; set-up: dose 10 mg/kg, route oral; details: in vivo
[13] = Cmax in Sprague-Dawley rat at 7.5 mg/kg, po; assay type: ADME, organism-based; set-up: dose 7.5 mg/kg, route oral; details: in vivo
[14] = Cmax in Sprague-Dawley rat at 10 mg/kg, po; assay type: ADME, organism-based; set-up: dose 10 mg/kg, route oral; details: in vivo
[15] = AUC (0 to infinity) in Sprague-Dawley rat at 7.5 mg/kg, po; assay type: ADME, organism-based; set-up: time infinity, dose 7.5 mg/kg, route oral; details: plasma
[16] = AUC (0 to infinity) in Sprague-Dawley rat at 10 mg/kg, po; assay type: ADME, organism-based; set-up: time infinity, dose 10 mg/kg, route oral; details: plasma
[17] = Oral bioavailability in Sprague-Dawley rat at 7.5 mg/kg; assay type: ADME, organism-based; details: in vivo
[18] = Oral bioavailability in Sprague-Dawley rat at 10 mg/kg; assay type: ADME, organism-based; details: in vivo
[19] = Tmax in Sprague-Dawley rat at 5 mg/kg, po; assay type: ADME, organism-based; set-up: dose 5 mg/kg, route oral; details: in vivo
[20] = Half life in Sprague-Dawley rat at 5 mg/kg, po; assay type: ADME, organism-based; set-up: dose 5 mg/kg, route oral; details: in vivo
[21] = Cmax in Sprague-Dawley rat at 5 mg/kg, po; assay type: ADME, organism-based; set-up: dose 5 mg/kg, route oral; details: in vivo
[22] = AUC (0 to infinity) in Sprague-Dawley rat at 5 mg/kg, po; assay type: ADME, organism-based; set-up: time infinity, dose 5 mg/kg, route oral; details: plasma
[23] = Oral bioavailability in Sprague-Dawley rat at 5 mg/kg; assay type: ADME, organism-based; details: in vivo

| SMILES | CC50 at 96 h [2] | EC50 [3] | selectivity ratio [4] | selectivity ratio [5] | remaining at 40 min [6] | remaining at 40 min [7] | IC50 [1] | CC50 [9] | Tmax [19] | half-life [20] | Cmax [21] | AUC(0-inf) [22] | bioavailability [23] | further results |
| --- | --- | --- | --- | --- | --- | --- | --- | --- | --- | --- | --- | --- | --- | --- |
| C=C(C)[C@@H]1CC[C@]2(C(=O)NCc3ccc(OC(F)(F)F)cc3)CC[C@]3(C)[C@H](CC[C@@H]4[C@@]5(C)CC[C@H](OC(=O)CC(C)(C)C(=O)O)C(C)(C)[C@@H]5CC[C@]43C)[C@@H]12 | 1000 nM | 190 nM | > 400 | > 400 | 10% | 10% | – | – | – | – | – | – | – | Activity [1]: inactive; TC50 (PBMC): Not Active |
| C=C(C)[C@@H]1CC[C@]2(C(=O)NCc3cccc(OC(F)(F)F)c3)CC[C@]3(C)[C@H](CC[C@@H]4[C@@]5(C)CC[C@H](OC(=O)CC(C)(C)C(=O)O)C(C)(C)[C@@H]5CC[C@]43C)[C@@H]12 | 5200 nM | 110 nM | > 400 | > 400 | 10% | 10% | – | – | – | – | – | – | – | Activity [1]: inactive; TC50 (PBMC): Not Active |
| C=C(C)[C@@H]1CC[C@]2(C(=O)NCCc3ccccc3C(=O)NCCC(=O)O)CC[C@]3(C)[C@H](CC[C@@H]4[C@@]5(C)CC[C@H](OC(=O)CC(C)(C)C(=O)O)C(C)(C)[C@@H]5CC[C@]43C)[C@@H]12 | 9600 nM | 3.1 nM | – | – | > 40% | > 40% | 9.4 nM | 11000 nM | – | – | – | – | – | Tmax [8]: 1 h; Tmax [10]: 4 h; half-life [11]: 4.54 h; half-life [12]: 7.8 h; Cmax [13]: 860 nM; Cmax [14]: 70 nM; AUC(0-inf) [15]: 1650 ng·h/mL; AUC(0-inf) [16]: 1260 ng·h/mL; bioavailability [17]: 15.5%; bioavailability [18]: 1.6% |
| C=C(C)[C@@H]1CC[C@]2(C(=O)NCc3cccc(OC)c3)CC[C@]3(C)[C@H](CC[C@@H]4[C@@]5(C)CC[C@H](OC(=O)CC(C)(C)C(=O)O)C(C)(C)[C@@H]5CC[C@]43C)[C@@H]12 | > 10000 nM | 19 nM | > 400 | > 400 | 10% | 10% | 14 nM | > 10000 nM | – | – | – | – | – | – |
| C=C(C)[C@@H]1CC[C@]2(C(=O)NCc3ccccc3C(=O)O)CC[C@]3(C)[C@H](CC[C@@H]4[C@@]5(C)CC[C@H](OC(=O)CC(C)(C)C(=O)O)C(C)(C)[C@@H]5CC[C@]43C)[C@@H]12 | 4500 nM | 6 nM | > 400 | > 400 | > 60% | > 60% | 16 nM | 9700 nM | 3.2 h | 2 h | 580 nM | 1700 ng·h/mL | 56.4% | – |
| C=C(C)[C@@H]1CC[C@]2(C(=O)NCc3ccc(OC)cc3)CC[C@]3(C)[C@H](CC[C@@H]4[C@@]5(C)CC[C@H](OC(=O)CC(C)(C)C(=O)O)C(C)(C)[C@@H]5CC[C@]43C)[C@@H]12 | > 10000 nM | 26 nM | > 400 | > 400 | 10% | 10% | 23.5 nM | > 10000 nM | – | – | – | – | – | – |
| C=C(C)[C@@H]1CC[C@]2(C(=O)NCc3ccc4c(c3)OCO4)CC[C@]3(C)[C@H](CC[C@@H]4[C@@]5(C)CC[C@H](OC(=O)CC(C)(C)C(=O)O)C(C)(C)[C@@H]5CC[C@]43C)[C@@H]12 | > 10000 nM | 23 nM | > 400 | > 400 | 10% | 10% | 9 nM | > 10000 nM | – | – | – | – | – | – |
| C=C(C)[C@@H]1CC[C@]2(C(=O)NCc3ccccc3OC)CC[C@]3(C)[C@H](CC[C@@H]4[C@@]5(C)CC[C@H](OC(=O)CC(C)(C)C(=O)O)C(C)(C)[C@@H]5CC[C@]43C)[C@@H]12 | > 10000 nM | 24 nM | > 400 | > 400 | 10% | 10% | 7 nM | > 10000 nM | 2 h | 2 h | 40 nM | 114 ng·h/mL | – | – |
| C=C(C)[C@@H]1CC[C@]2(C(=O)NCCc3ccc(OC)cc3)CC[C@]3(C)[C@H](CC[C@@H]4[C@@]5(C)CC[C@H](OC(=O)CC(C)(C)C(=O)O)C(C)(C)[C@@H]5CC[C@]43C)[C@@H]12 | > 10000 nM | 12 nM | – | – | – | – | 60 nM | 1000 nM | 2 h | 4.8 h | 40 nM | 245 ng·h/mL | 1.84% | – |
| C=C(C)[C@@H]1CC[C@]2(C(=O)NCc3ccc(Cl)cc3)CC[C@]3(C)[C@H](CC[C@@H]4[C@@]5(C)CC[C@H](OC(=O)CC(C)(C)C(=O)O)C(C)(C)[C@@H]5CC[C@]43C)[C@@H]12 | > 10000 nM | 17.9 nM | > 400 | > 400 | > 60% | > 60% | 27 nM | > 10000 nM | 2 h | 8 h | 270 nM | 1340 ng·h/mL | 3.91% | – |
